Experimental data published in patent publication EP0045334A1, “Propranolol antigen conjugates and antibodies and method of using them” (SYVA COMPANY, priority 1980, dated 1982).

What was measured:
[1] = test system: Antibodies prepared from BSA conjugate according to Example 6; assay: Cross-reactivity in homogeneous enzyme immunoassay for propranolol (G6PDH conjugate, change in OD at 340nm); format: binding; conditions: 100ng/ml propranolol standard
Protocol: (§1) Antibodies were prepared employing the conjugates of Examples 4 and 6 in accordance with known procedures. The bleeds were harvested and the antibodies isolated according to known techniques.
(§2) The following is the assay procedure employed for the determination of the presence of propranolol.
(§3) In carrying out the propranolol assay, a number of reagent solutions are prepared:
(§4) • 0.055M Tris-HCl • 0.05% Sodium Azide • 0.005% Thimerosal • pH8.1 at room temperature • Assay Buffer • Basic Buffer • 0.5% NaCl • 0.01% Triton X-100 • pH8.1 at room temperature • Substrate/Antibody Diluent • Basic Buffer • 1.0% RSA (Rabbit Serum Albumin) • 0.04M NAD • 0.066M glucose-6-phosphate • pH5.0 at room temperature • Enzyme Diluent • Basic Buffer • 1.0% RSA • 0.9% NaCl • pH 8.1 at room temperature • Antibody-Substrate Reagent A
(§5) Antibody Substrate is used to dilute gamma globulin isolated as above so that ca 70% of the G6PDH conjugate activity is inhibited in the assay solution.
(§6) The enzyme conjugate (e.g., Example 7) is diluted with enzyme diluent to attain the desired maximum rate. This is measured by aspirating into a spectrometer and taking the change in readings at 340nm over a 30 second period after a 15 second delay.
(§7) In carrying out the assay, the assay solution is prepared by combining the following: 50µl of the sample to be assayed, 50 µl of Reagent A, and 50 µl of Reagent B with 750 µl of assay buffer. The mixture is aspirated into a spectrometer and the A OD read at 340nm. The.concentration of propranolol in the sample is read from a standard curve prepared by using standardized solutions and taking readings.
(§8) The drugs listed below were used in preliminary testing for cross-reactivity with propranolol using the assay procedure described above: 4-hydroxypropranolol (4POH), N-desisopropyl-propranolol (DIPP), propranolol glycol (PG), naphthoxylactic acid (NLA), and naphthoxyacetic acid (NAA). All are metabolites of propranolol itself. […] The remainder show cross reactivity as below.

[2] = test system: Antibodies prepared from BgG conjugate according to Example 4; assay: as above; format: binding; conditions: Lot 2153; 100ng/ml propranolol standard
Protocol: as §1, §2, §3, §4, §5, §6, §7, §8

SMILES	CROSS-REACTIVITY, expressed as the concentration necessary to elevate the signal of a 100ng/ml standard solution by 30% ([1]; Lot 2215)	CROSS-REACTIVITY, expressed as the concentration necessary to elevate the signal of a 100ng/ml standard solution by 30% ([1]; Lot 2216)	CROSS-REACTIVITY, expressed as the concentration necessary to elevate the signal of a 100ng/ml standard solution by 30% [2]
OCC(O)COc1cccc2ccccc12 (stereo not drawn) [PG, propranolol glycol]	230 ng/mL	400 ng/mL	84 ng/mL
CC(C)NCC(O)COc1ccc(O)c2ccccc12 (stereo not drawn) [Example 4POH, 4-hydroxypropranolol]	>1000 ng/mL	>1000 ng/mL	190 ng/mL
NCC(O)COc1cccc2ccccc12 (stereo not drawn) [DIPP, N-desisopropyl-propranolol]	22 ng/mL	200 ng/mL	8 ng/mL
